Assay results published in patent US20200352991A1, “POLYMER FILMS WITH ANTIMICROBIAL AGENTS” (The Trustees of Columbia University in the City of New York, priority 2017, published 2020).

Key:
S. aureus = experiment: Rapid kill test, 15 second time kill; assay type: cell-based; conditions: 100 ul of 104 S. aureus culture, 15 second time kill
[1] = tested on: P. aeruginosa (ATCC 15442); experiment: Zone of inhibition test of coated endotracheal tubes, modified Kirby-Bauer method; assay type: cell-based; conditions: coated endotracheal tube segments, 24 hours, ETT diameter (10 mm) is included
Experimental: Efficacy of the coated tubes was evaluated by zone of inhibition test against P. aeruginosa (ATCC 15442) after 24 hours.
Method: The anti-microbial efficacy of the coated endotracheal tube (ETT) was evaluated by zone of inhibition test against P. aeruginosa (ATCC 15442) according to the modified Kirby-Bauer method. Trypticase soy agar (TSA) plates were seeded with 0.3 mL of overnight grown bacterial culture diluted to 107 colony forming units (CFU) per mL.
Antimicrobial coated ETTs were cut into 0.5 cm segments and embedded vertically into the agar plate. Uncoated ETT segments were used as control. After 24 hours of incubation at 37° C., the diameters of zones of inhibition around the ETT segments, including the diameters of the ETT, were measured.

Structure (SMILES): CC(=O)N[C@@H](CS)C(=O)O [N-acetyl cystein (NAC, 1%), N-acetyl cystein]
- Log10 reduction (S. aureus): 0.34 Log10
- Zone of inhibition against P. aeruginosa [1]: 0 mm

Structure (SMILES): [H]/N=C(\N/C(=N/[H])NCCCCCCNC(=N)NC(=N)Nc1ccc(Cl)cc1)Nc1ccc(Cl)cc1 [Chlorhexidine (CHX, 0.3%), Chlorhexidine]
- Log10 reduction (S. aureus): 4.51 Log10
- Zone of inhibition against P. aeruginosa [1]: 20 mm
